# Reference: patent EP0184331A2 (priority 1984, dated 1986)
# Where two headings read alike, the source gives them in different places.
# Tests used:
# [1] = system: Vesicular stomatitis virus (VSV); conditions: cited from earlier work; for effectiveness in photoinactivation compared with TMP: 0.7 mW/cm^2 long-wave UV light; for light dose response in the inactivation of VSV: 20-30 µg/ml
# [2] = system: reovirus (a double-stranded RNA virus); conditions: cited from earlier work
# [3] = system: influenza virus; conditions: cited from earlier work
# [4] = system: Herpes virus; conditions: cited from earlier work; for photoinactivation: in 0.9 minutes, 10 ug/ml, 1.2 mW/cm^2 long-wave ultraviolet light
# [5] = system: Rous sarcoma virus; conditions: cited from earlier work
# [6] = system: tobacco mosaic virus (TMV); conditions: 100 mW/cm^2 long-wave ultraviolet light; AMT and HMT indistinguishable; cited from earlier work
# [7] = system: Moloney sarcoma virus; conditions: cited from earlier work
# [8] = system: Western equine encephalitis virus (WEE, an RNA virus); conditions: cited from earlier work
# [9] = system: herpes simplex virus (a DNA virus); conditions: cited from earlier work
# [10] = system: vesicular stomatitis virus; conditions: approximately 5 minutes irradiation at 9 mW/cm^2, 8.2 µg/ml AMT; cited from earlier work
# [11] = system: cell-free influenza virus; conditions: 1.2 mW/cm^2, cited from earlier work
# [12] = system: Intracellular influenza virus; conditions: 10 µg/ml of AMT, 1.2 mW/cm^2; cited from earlier work
# [13] = system: vesicular stomatitis virus; conditions: 9 mW/cm^2 long-wave ultraviolet light; sufficient for inactivation; cited from earlier work
# [14] = system: leukemic cells obtained by infection of mice with Graffi's leukemia virus; conditions: cited from earlier work
# [15] = system: Graffi virus; conditions: cited from earlier work
# [16] = cited from earlier work
# [17] = system: HTLV-III; format: cell-based, Human Tumor Leukemia Virus (HTLV) III
# [18] = system: pseudorabies; conditions: cited from earlier work
# [19] = system: canine hepatitis virus; conditions: cited from earlier work
# [20] = system: fowl pox virus; conditions: cited from earlier work
# [21] = system: NewCastle disease virus; conditions: cited from earlier work
# [22] = system: foot-and-mouth disease virus; conditions: cited from earlier work
# [23] = system: Teschen disease virus; conditions: cited from earlier work
# [24] = at higher psoralen derivative concentrations
# [25] = 30 minutes at 11.5 mW/cm^2 ultraviolet light, 10 µg/ml
# [26] = 30 minutes at 11.5 mW/cm^2 ultraviolet light (365 mm), 10 µg/ml
# [27] = on a molar basis, within TMP solubility range
smiles,measurement,setting,value
"Cc1oc2c(C)c3oc(=O)cc(C)c3cc2c1CO [HMT, 4'-hydroxymethyl 4,5',8-trimethyl-psoralen]",effectiveness in photoinactivation compared with TMP,[1],a thousand times more effective than TMP
same,light dose response in the inactivation of VSV,[1]; 0.7 mW/cm^2,equivalent with respect to light dose response
same,reduction of infectivity,"[2]; 20 minutes of irradiation at 9 mW/cm^2, HMT 2.8 x 10^-4 M = 72 µg/ml",5 -fold
same,less effective than AMT in the photoinactivation of influenza virus,[3]; same conditions as AMT (9 mW/cm^2),about 10 -fold
same,photoinactivation,[4],10^4 -fold
same,inactivation,[5],10^4 -fold
same,effect on translational activity compared with TMP,[6],slightly greater than the effects of TMP
"Cc1oc2c(C)c3oc(=O)cc(C)c3cc2c1CN [AMT, 4'-aminomethyl 4,5',8-trimethyl-psoralen]",effectiveness in photoinactivation compared with TMP,[1],a thousand times more effective than TMP
same,"photoinactivation of VSV, comparison of derivatives","[1]; 2-3 µg/ml, 0.7 mW/cm^2",superior to HMT and MMT
same,light dose response in the inactivation of VSV,[1]; 0.7 mW/cm^2,equivalent with respect to light dose response
same,inactivation,[7],10 -fold
same,inactivation,"[8]; approximately 5 minutes of irradiation at 1.9 mW/cm^2, 10 µg/ml AMT",10^8 -fold
same,inactivation rates compared with TMP,[8]; [24],superior inactivation rates
same,inactivation rates compared with TMP,[9]; [24],superior inactivation rates
same,reduction of infectivity,"[2]; 15 minutes irradiation at 9 mW/cm^2, AMT 2.8 x 10^-4 M = 82 ug/ml",> 10^4 -fold
same,reduction of viral RNA polymerase activity,[10],100 -fold
same,reduction of viral RNA polymerase activity,"[3]; approximately 5 minutes irradiation at 9 mW/cm^2, 8.2 µg/ml AMT",100 -fold
same,effectiveness compared with HMT,"[4]; at lower concentrations of the psoralen derivatives, 1.2 mW/cm^2",always more effective than an equal amount of HMT
same,photoinactivation,[4],10^4 -fold
same,rate of inactivation compared with equivalent amounts of HMT,[11]; at all psoralen concentrations,more rapidly inactivated
same,inactivation,"[11]; in 1 minute, 10 µg/ml of AMT",10 -fold
same,time required for a 10^7-fold inactivation,[12],4 minutes
same,effect on translational activity compared with TMP,[6],slightly greater than the effects of TMP
same,photoreaction with viral RNA,[13],photoreact only with a single base (cytosine)
"COCc1c(C)oc2c(C)c3oc(=O)cc(C)c3cc12 [MMT, 4'-methoxymethyl 4,5',8-trimethyl-psoralen]",effectiveness in photoinactivation compared with TMP,[1],a thousand times more effective than TMP
same,light dose response in the inactivation of VSV,[1]; 0.7 mW/cm^2,equivalent with respect to light dose response
Cc1c2occc2cc2ccc(=O)oc12 [8-methyl-psoralen],effect on leukemic cells (ability to replicate or induce leukemia in adult mice),[14]; [25],killed the cells
same,properties of the [intracellular] Graffi virus,[15]; [26],remained unchanged
"Cc1coc2c(C)c3oc(=O)cc(C)c3cc12 [4,4',8-trimethylpsoralen]",effect on leukemic cells (ability to replicate or induce leukemia in adult mice),[14]; [25],killed the cells
same,properties of the [intracellular] Graffi virus,[15]; [26],remained unchanged
"Cc1cc2cc3c(C)cc(=O)oc3c(C)c2o1 [TMP, 4,5',8-tri-methylpsoralen]",effectiveness in photoinactivation compared with AMT,[8]; [27],more effective
same,effectiveness in photoinactivation compared with AMT,[9]; [27],more effective
same,solubility range,[16],0 to 1 µg/mL
"O=c1ccc2cc3ccoc3cc2o1 [psoralen, Psoralen]",HTLV-III titers,[17],1 x 10^5 FFU/mL
same,infectious HTLV-III recovered,[17],no infectious HTLV-III was recovered
same,photoinactivation,[18],photoinactivated
same,photoinactivation,[19],photoinactivated
same,photoinactivation,[20],photoinactivated
same,irradiation resisted by the virus,[21],up to 120 minutes
same,irradiation resisted by the virus,[22],up to 120 minutes
same,irradiation resisted by the virus,[23],up to 120 minutes
same,effect on leukemic cells (ability to replicate or induce leukemia in adult mice),[14],killed the cells
same,properties of the [intracellular] Graffi virus,[15],remained unchanged
same,RSV inactivated,[5],approximately 1 x 10^5 FFU/ml
